Common to all, as to format: biochemical
One experiment has as its target T1, PI3K α (Homo sapiens, UniProt P42336).
T1 construct: purchased Upstate
The experiment in a line: PI 3-Kinase HTRF inhibition assay, PI3K α. The following applies: in vitro; read-out: PI3K α IC50. The method, then: (§1) Commercial kits or systems for assaying PI3-K activities are available. The commercially available kits or systems can be used to screen for inhibitors and/or agonists of PI3-Ks including but not limited to PI 3-Kinase α, β, δ, and γ. An exemplary system is PI 3-Kinase (human) HTRF™ Assay from Upstate. […] Briefly, the assay is a time resolved FRET assay that indirectly measures PIP3 product formed by the activity of a PI3-K. The kinase reaction is performed in a microtitre plate (e.g., a 384 well microtitre plate). The total reaction volume is approximately 20 ul per well. In the first step, each well receives 2 ul of test compound in 20% dimethylsulphoxide resulting in a 2% DMSO final concentration. Next, approximately 14.5 ul of a kinase/PIP2 mixture (diluted in 1× reaction buffer) is added per well for a final concentration of 0.25-0.3 ug/ml kinase and 10 μM PIP2. The plate is scaled and incubated for 15 minutes at room temperature. To start the reaction, 3.5 ul of ATP (diluted in 1× reaction buffer) is added per well for a final concentration of 10 μM ATP. The plate is sealed and incubated for 1 hour at room temperature. The reaction is stopped by adding 5 ul of Stop Solution per well and then 5 ul of Detection Mix is added per well. The plate is sealed, incubated for 1 hour at room temperature, and then read on an appropriate plate reader. Data is analyzed and IC50s are generated using GraphPad Prism 5. For PI3K α, β, δ, and γ, the nM concentration of inhibitor to reach IC50 is provided. […] Similar assays, and others known in the art, can be used to measure the percent inhibition of other kinases, including but not limited to PI3K class II kinases, phosphoinositide 4 kinases (PI4K), and phosphoinositide 5 kinases (PI5K).
(In general: Time-resolved FRET reads energy transfer from a long-lived donor to a nearby acceptor.)

The target of the next experiment is T2, PI3K β (Homo sapiens, UniProt P42338).
T2 construct: purchased Upstate
The experiment in a line: PI 3-Kinase HTRF inhibition assay, PI3K β. The following applies: in vitro. The method, then:
as §1

The next experiment deals with T3, PI3K δ (Homo sapiens, UniProt O00329).
T3 construct: purchased Upstate
The experiment in a line: PI 3-Kinase HTRF inhibition assay, PI3K δ. As to conditions: in vitro; read-out: PI3K δ IC50. The method, then:
as §1

In another experiment the target is T4, PI3K γ (Homo sapiens, UniProt P48736).
T4 construct: purchased Upstate
In words: PI 3-Kinase HTRF inhibition assay, PI3K γ. As to conditions: in vitro.

T2 sequence (P42338 whole entry): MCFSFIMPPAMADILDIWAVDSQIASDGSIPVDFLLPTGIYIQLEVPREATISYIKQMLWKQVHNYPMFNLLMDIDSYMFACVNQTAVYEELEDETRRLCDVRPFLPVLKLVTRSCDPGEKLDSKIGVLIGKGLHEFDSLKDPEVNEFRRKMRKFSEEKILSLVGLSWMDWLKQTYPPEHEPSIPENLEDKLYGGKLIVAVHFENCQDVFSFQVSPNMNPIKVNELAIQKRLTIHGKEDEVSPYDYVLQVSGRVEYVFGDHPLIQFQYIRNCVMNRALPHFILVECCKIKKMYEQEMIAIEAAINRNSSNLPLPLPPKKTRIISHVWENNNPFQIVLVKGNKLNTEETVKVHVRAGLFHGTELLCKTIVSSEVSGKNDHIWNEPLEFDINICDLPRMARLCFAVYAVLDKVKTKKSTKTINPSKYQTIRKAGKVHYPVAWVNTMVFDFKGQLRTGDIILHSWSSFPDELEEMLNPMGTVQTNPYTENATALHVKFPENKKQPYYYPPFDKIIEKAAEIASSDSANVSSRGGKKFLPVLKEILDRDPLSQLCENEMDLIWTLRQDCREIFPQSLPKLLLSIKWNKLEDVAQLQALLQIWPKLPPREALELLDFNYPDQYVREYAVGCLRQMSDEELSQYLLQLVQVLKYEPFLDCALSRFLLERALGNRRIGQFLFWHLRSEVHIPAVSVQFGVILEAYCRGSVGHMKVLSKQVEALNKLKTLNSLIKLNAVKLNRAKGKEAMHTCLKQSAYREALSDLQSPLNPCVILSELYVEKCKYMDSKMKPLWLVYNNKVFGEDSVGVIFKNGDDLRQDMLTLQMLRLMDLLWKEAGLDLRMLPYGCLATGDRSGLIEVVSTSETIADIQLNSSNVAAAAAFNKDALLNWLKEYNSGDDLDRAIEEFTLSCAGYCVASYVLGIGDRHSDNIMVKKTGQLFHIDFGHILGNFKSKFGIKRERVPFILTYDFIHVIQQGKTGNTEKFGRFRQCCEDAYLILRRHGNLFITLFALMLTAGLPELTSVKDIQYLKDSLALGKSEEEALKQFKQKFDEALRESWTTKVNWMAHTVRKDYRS
T2 sequence (P27986 whole entry partner): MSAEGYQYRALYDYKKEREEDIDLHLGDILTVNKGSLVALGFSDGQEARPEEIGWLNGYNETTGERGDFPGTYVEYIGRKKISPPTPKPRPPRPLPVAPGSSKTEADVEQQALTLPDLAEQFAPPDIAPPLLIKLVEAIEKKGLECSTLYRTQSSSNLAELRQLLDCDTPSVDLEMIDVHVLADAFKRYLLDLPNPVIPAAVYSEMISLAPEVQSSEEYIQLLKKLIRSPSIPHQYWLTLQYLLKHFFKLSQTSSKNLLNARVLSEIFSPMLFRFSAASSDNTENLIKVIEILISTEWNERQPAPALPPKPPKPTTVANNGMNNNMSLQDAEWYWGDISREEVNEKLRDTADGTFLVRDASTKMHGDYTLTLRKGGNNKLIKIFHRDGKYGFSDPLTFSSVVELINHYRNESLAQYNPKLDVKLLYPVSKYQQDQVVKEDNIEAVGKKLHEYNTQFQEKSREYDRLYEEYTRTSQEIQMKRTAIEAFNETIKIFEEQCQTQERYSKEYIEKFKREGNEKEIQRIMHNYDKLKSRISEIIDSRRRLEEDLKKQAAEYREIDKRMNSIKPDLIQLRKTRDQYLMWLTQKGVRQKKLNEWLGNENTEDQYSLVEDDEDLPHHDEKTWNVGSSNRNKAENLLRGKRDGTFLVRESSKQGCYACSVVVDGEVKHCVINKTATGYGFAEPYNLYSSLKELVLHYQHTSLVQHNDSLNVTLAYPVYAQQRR
T3 sequence (O00329 whole entry): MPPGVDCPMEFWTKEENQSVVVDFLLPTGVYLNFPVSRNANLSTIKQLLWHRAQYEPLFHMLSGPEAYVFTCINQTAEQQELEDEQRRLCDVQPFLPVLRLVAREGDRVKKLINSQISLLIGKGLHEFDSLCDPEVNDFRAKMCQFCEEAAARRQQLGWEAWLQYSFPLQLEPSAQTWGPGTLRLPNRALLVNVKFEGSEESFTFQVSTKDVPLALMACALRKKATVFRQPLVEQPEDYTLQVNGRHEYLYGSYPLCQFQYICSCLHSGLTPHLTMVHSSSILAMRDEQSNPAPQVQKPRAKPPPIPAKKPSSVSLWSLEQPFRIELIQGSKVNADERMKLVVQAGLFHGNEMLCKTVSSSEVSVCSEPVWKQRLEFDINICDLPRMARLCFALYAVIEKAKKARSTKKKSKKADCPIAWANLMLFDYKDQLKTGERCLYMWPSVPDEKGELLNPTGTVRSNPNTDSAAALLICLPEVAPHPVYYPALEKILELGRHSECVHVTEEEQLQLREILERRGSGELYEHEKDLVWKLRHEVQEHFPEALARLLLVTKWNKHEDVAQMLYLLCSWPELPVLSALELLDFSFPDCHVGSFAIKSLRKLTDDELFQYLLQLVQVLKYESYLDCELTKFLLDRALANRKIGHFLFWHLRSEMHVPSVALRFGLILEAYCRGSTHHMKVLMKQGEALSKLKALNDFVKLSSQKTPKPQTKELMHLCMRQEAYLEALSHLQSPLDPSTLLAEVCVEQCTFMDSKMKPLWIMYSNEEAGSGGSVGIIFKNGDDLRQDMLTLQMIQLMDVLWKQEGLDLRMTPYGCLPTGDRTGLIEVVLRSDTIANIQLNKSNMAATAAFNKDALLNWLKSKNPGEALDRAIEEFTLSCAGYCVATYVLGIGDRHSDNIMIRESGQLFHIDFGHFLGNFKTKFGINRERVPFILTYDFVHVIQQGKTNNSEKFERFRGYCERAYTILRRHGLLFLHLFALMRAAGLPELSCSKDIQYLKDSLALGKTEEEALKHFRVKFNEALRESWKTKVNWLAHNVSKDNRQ
T3 sequence (P27986 whole entry partner): as the sequence (P27986 whole entry partner) above
T1 sequence (P42336 whole entry): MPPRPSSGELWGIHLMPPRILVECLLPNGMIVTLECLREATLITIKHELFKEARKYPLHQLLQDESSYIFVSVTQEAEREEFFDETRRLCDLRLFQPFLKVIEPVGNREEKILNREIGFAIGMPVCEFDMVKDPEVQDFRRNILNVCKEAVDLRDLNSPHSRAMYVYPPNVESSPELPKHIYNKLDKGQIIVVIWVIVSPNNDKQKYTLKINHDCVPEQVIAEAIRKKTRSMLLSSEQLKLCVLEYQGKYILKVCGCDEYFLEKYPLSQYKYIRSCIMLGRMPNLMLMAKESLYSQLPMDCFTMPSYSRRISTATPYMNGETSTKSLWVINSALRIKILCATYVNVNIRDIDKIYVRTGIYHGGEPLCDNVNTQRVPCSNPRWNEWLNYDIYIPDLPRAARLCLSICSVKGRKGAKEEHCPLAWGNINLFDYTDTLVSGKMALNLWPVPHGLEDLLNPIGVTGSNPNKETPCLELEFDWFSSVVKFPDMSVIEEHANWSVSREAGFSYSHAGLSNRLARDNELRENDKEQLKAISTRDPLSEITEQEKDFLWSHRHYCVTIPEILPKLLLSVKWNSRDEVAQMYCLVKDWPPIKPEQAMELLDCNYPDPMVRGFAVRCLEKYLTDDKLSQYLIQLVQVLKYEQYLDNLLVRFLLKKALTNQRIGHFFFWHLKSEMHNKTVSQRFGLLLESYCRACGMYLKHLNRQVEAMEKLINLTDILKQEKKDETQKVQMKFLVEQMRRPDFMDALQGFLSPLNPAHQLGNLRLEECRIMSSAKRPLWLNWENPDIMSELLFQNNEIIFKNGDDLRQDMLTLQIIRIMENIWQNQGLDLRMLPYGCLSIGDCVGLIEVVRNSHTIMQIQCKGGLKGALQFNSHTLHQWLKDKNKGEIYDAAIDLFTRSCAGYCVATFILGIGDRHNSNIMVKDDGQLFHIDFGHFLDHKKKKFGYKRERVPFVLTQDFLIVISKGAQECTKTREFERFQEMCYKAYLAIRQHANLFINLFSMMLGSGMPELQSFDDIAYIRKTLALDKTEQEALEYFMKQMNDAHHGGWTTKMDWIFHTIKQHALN
T1 sequence (P27986 whole entry partner): as the sequence (P27986 whole entry partner) above
T4 sequence (P48736 whole entry): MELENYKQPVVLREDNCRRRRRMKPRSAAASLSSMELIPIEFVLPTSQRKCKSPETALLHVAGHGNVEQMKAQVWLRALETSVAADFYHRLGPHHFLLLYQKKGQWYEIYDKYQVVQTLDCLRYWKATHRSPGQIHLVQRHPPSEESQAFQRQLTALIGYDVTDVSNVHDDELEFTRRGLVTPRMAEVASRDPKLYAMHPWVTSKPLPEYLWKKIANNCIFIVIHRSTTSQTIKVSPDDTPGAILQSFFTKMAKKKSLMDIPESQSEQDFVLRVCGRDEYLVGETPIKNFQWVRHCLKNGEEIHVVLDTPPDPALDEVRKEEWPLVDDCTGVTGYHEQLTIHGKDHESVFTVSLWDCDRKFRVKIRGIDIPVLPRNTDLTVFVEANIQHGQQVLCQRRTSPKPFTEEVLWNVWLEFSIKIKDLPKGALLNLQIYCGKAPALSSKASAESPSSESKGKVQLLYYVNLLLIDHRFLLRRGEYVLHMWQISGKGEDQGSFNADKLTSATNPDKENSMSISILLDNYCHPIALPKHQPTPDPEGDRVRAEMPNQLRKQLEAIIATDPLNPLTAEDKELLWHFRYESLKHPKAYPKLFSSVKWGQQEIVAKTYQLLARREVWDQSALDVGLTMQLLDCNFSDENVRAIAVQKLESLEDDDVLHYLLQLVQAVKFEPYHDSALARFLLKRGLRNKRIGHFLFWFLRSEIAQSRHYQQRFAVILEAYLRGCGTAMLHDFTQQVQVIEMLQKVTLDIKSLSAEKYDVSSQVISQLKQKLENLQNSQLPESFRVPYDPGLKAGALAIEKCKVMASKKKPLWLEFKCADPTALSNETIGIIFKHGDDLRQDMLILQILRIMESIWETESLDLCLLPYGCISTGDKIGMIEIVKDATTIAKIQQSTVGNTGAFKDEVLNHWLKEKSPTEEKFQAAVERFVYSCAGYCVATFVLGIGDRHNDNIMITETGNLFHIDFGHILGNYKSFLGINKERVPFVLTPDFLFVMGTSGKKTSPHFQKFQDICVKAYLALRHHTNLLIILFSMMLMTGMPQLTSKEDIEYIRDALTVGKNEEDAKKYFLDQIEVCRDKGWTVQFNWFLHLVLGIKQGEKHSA

Usually IC50 stands for the concentration at which inhibition is half-maximal. On to `C[C@H]1CN(c2cnc3ccc(-c4ccc5oc(N)nc5c4)nc3n2)CCN1` [Compound 1], for which the IC50 was less than 1000 nM on PI3K α, less than 100 nM at PI3K β, less than 10000 nM at PI3K δ and less than 10000 nM on PI3K γ.
For the compound `Nc1nc2cc(-c3ccc4ncc(N5CCOCC5)nc4n3)ccc2o1` [Compound 2, 5-(3-morpholinopyrido[2,3-b]pyrazin-6-yl)benzo[d]oxazol-2-amine], the half-maximal inhibitory concentration (IC50) at PI3K α is less than 100 nM; at PI3K β, less than 1000 nM; on PI3K δ, greater than 10000 nM; on PI3K γ it was less than 100 nM.
`Nc1nc2cc(-c3ccc4ncc(-c5cccnc5)nc4n3)ccc2o1` [Compound 3]: the IC50 on PI3K α was less than 1000 nM; against PI3K β, less than 10000 nM; at PI3K δ, greater than 10000 nM; on PI3K γ, less than 1000 nM.
With `CN1CCN(c2cnc3ccc(-c4ccc5oc(N)nc5c4)nc3n2)CC1` [Compound 4], the half-inhibitory concentration (IC50) on PI3K α was less than 1000 nM; against PI3K β, less than 1000 nM; on PI3K δ, less than 10000 nM; at PI3K γ it was less than 10000 nM.
On to `Nc1nc2cc(-c3ccc4ncc(N5CC(N6CCOCC6)C5)nc4n3)ccc2o1` [Compound 5], for which the 50% inhibitory concentration (IC50) was less than 100 nM at PI3K α, greater than 10000 nM on PI3K β, less than 10000 nM at PI3K δ and less than 10000 nM on PI3K γ.
Turning to `CCOC(=O)N1CCN(c2cnc3ccc(-c4ccc5oc(N)nc5c4)nc3n2)CC1` [Compound 6], the IC50 was less than 100 nM on PI3K α, less than 1000 nM on PI3K β, less than 1000 nM on PI3K δ and less than 1000 nM on PI3K γ.
On to `Nc1nc2cc(-c3ccc4nc(N5CCOCC5)cnc4n3)ccc2o1` [Compound 7], for which the IC50 at PI3K α, against PI3K β, on PI3K δ and on PI3K γ was greater than 10000 nM throughout.
In the case of `CS(=O)(=O)N1CCN(C2CN(c3cnc4ccc(-c5ccc6oc(N)nc6c5)nc4n3)C2)CC1` [Compound 8], the IC50 on PI3K α was less than 100 nM; against PI3K β, greater than 10000 nM; at PI3K δ it was less than 10000 nM; at PI3K γ, less than 1000 nM.
The matching figures for `CCOC(=O)N1CC=C(c2cnc3ccc(-c4ccc5oc(N)nc5c4)nc3n2)CC1` [Compound 9]: less than 100 nM, less than 10000 nM, less than 10000 nM and less than 100 nM.
The like results for `C[C@H]1CN(C2CN(c3cnc4ccc(-c5ccc6oc(N)nc6c5)nc4n3)C2)CCN1` [Compound 10] were, in that order, less than 100 nM, greater than 10000 nM, less than 10000 nM and less than 10000 nM.
In the case of `Nc1nc2cc(-c3ccc4ncc(C5=CCOCC5)nc4n3)ccc2o1` [Compound 11], the IC50 was less than 100 nM on PI3K α, less than 10000 nM against PI3K β, greater than 10000 nM on PI3K δ and less than 100 nM on PI3K γ.
For `C[C@@H]1CN(C2CN(c3cnc4ccc(-c5ccc6oc(N)nc6c5)nc4n3)C2)CCN1` [Compound 12], the half-inhibitory concentration (IC50) on PI3K α was less than 100 nM; on PI3K β, greater than 10000 nM; at PI3K δ it was less than 10000 nM; against PI3K γ, greater than 10000 nM.
Take `Nc1nc2cc(-c3ccc4ncc(N5CCC(F)(F)CC5)nc4n3)ccc2o1` [Compound 13]: the IC50 is less than 100 nM on PI3K α, greater than 10000 nM at PI3K β, greater than 10000 nM at PI3K δ and less than 100 nM against PI3K γ.
In the case of `C[C@@H]1COCCN1c1cnc2ccc(-c3ccc4oc(N)nc4c3)nc2n1` [Compound 14], the 50% inhibitory concentration (IC50) is less than 100 nM at PI3K α, less than 10000 nM at PI3K β, less than 10000 nM on PI3K δ and less than 100 nM against PI3K γ.
On to `C[C@H]1COCCN1c1cnc2ccc(-c3ccc4oc(N)nc4c3)nc2n1` [Compound 15], for which the 50% inhibitory concentration (IC50) at PI3K α was less than 100 nM; at PI3K β, less than 10000 nM; at PI3K δ it was greater than 10000 nM; at PI3K γ, less than 100 nM.
Consider `Nc1nc2cc(-c3ccc4ncc(-c5cccnc5)cc4n3)ccc2o1` [Compound 16], for which the IC50 at PI3K α was less than 100 nM; against PI3K β it was less than 10000 nM; on PI3K δ it was less than 10000 nM; against PI3K γ it was less than 100 nM.
Turning to `CC1(C)CN(C2CN(c3cnc4ccc(-c5ccc6oc(N)nc6c5)nc4n3)C2)CCO1` [Compound 17], the values for the IC50 at PI3K α, against PI3K β and on PI3K δ were less than 1000 nM, greater than 10000 nM and greater than 10000 nM, respectively.
On to `CC1CN(C2CN(c3cnc4ccc(-c5ccc6oc(N)nc6c5)nc4n3)C2)CCO1` (centres unmarked) [Compound 18], for which the IC50 was less than 1000 nM at PI3K α, greater than 10000 nM at PI3K β, greater than 10000 nM at PI3K δ and less than 10000 nM against PI3K γ.
As to `Nc1nc2cc(-c3ccc4ncc(N5CC(N6CC7CCC(C6)O7)C5)nc4n3)ccc2o1` [Compound 20], the half-maximal inhibitory concentration (IC50) was less than 1000 nM on PI3K α, greater than 10000 nM against PI3K β, greater than 10000 nM on PI3K δ and less than 10000 nM against PI3K γ.
For `C[C@H]1CN(C2CN(c3cnc4ccc(-c5ccc6oc(N)nc6c5)nc4n3)C2)CCN1C` [Compound 21], the IC50 at PI3K α was less than 100 nM; on PI3K β it was greater than 10000 nM; on PI3K δ, less than 10000 nM; against PI3K γ, greater than 10000 nM.
With `Nc1nc2cc(-c3ccc4ncc(N5CCOCC5)cc4n3)ccc2o1` [Compound 22], the IC50 at PI3K α is less than 100 nM; at PI3K β it was less than 1000 nM; at PI3K δ, greater than 10000 nM; against PI3K γ, less than 100 nM.
Take `Nc1nc2cc(-c3ccc4ncc(N5C6CCC5COC6)cc4n3)ccc2o1` [Compound 23]: the IC50 was less than 100 nM on PI3K α, less than 10000 nM on PI3K β, greater than 10000 nM on PI3K δ and less than 100 nM against PI3K γ.
`CN1CCN(c2cnc3ccc(-c4ccc5oc(N)nc5c4)nc3c2)CC1` [Compound 24]: the IC50 on PI3K α is less than 100 nM; against PI3K β, less than 100 nM; on PI3K δ it was less than 10000 nM; against PI3K γ, less than 1000 nM.
For the compound `C[C@@H]1CN(C2CN(c3cnc4ccc(-c5ccc6oc(N)nc6c5)nc4n3)C2)CCN1C` [Compound 25], the IC50 on PI3K α is less than 100 nM; against PI3K β, greater than 10000 nM; at PI3K δ, less than 10000 nM; against PI3K γ, less than 10000 nM.
For `CCN(CC)c1cnc2ccc(-c3ccc4oc(N)nc4c3)nc2n1` [Compound 26], the 50% inhibitory concentration (IC50) on PI3K α was less than 1000 nM; against PI3K β, greater than 10000 nM; at PI3K δ it was less than 10000 nM; against PI3K γ, less than 1000 nM.
With `C[C@@H]1CN(c2cnc3ccc(-c4ccc5oc(N)nc5c4)nc3n2)CCN1` [Compound 27], the concentration for half-maximal inhibition (IC50) is less than 100 nM at PI3K α, less than 100 nM on PI3K β, less than 10000 nM on PI3K δ and less than 1000 nM against PI3K γ.
Take `Nc1nc2cc(-c3ccc4ncc(N5CC6CCC(C5)O6)nc4n3)ccc2o1` [Compound 28]: the concentration for half-maximal inhibition (IC50) at PI3K α was less than 100 nM; against PI3K β, greater than 10000 nM; at PI3K δ, greater than 10000 nM; against PI3K γ, less than 1000 nM.
With `Nc1nc2cc(-c3ccc4ncc(N5CCNC(=O)C5)nc4n3)ccc2o1` [Compound 29], the IC50 at PI3K α was less than 100 nM; on PI3K β it was less than 1000 nM; at PI3K δ, less than 10000 nM; on PI3K γ, less than 100 nM.
Take `C[C@H](N)C(=O)N1CCN(c2cnc3ccc(-c4ccc5oc(N)nc5c4)nc3n2)CC1` [Compound 30]: the IC50 at PI3K α, at PI3K β, at PI3K δ and on PI3K γ was less than 100 nM each time.
In the case of `C[C@@H](N)C(=O)N1CCN(c2cnc3ccc(-c4ccc5oc(N)nc5c4)nc3n2)CC1` [Compound 31], the concentration for half-maximal inhibition (IC50) is less than 100 nM at PI3K α, less than 10000 nM at PI3K β, less than 10000 nM on PI3K δ and less than 1000 nM at PI3K γ.
Take `CC(C)N1CCN(c2cnc3ccc(-c4ccc5oc(N)nc5c4)nc3n2)CC1` [Compound 32]: the IC50 on PI3K α was less than 100 nM; against PI3K β it was less than 1000 nM; at PI3K δ, less than 10000 nM; against PI3K γ, less than 1000 nM.
Turning to `Nc1nc2cc(-c3ccc4ncc(N5CCN(C(=O)C6(N)CC6)CC5)nc4n3)ccc2o1` [Compound 41], the IC50 at PI3K α and against PI3K γ was less than 100 nM each time.
For the compound `CC(C)(N)C(=O)N1CCN(c2cnc3ccc(-c4ccc5oc(N)nc5c4)nc3c2)CC1` [Compound 43, 2-amino-1-(4-(6-(2-aminobenzo[d]oxazol-5-yl)-1,5-naphthyridin-3-yl)piperazin-1-yl)-2-methylpropan-1-one], the half-inhibitory concentration (IC50) is less than 100 nM on PI3K α, less than 1000 nM at PI3K δ and less than 1000 nM against PI3K γ.
Take `CC(C)N1CCN(C2CN(c3cnc4ccc(-c5ccc6oc(N)nc6c5)nc4c3)C2)CC1` [Compound 72, 5-(7-(3-(4-isopropylpiperazin-1-yl)azetidin-1-yl)-1,5-naphthyridin-2-yl)benzo[d]oxazol-2-amine]: the IC50 at PI3K α is less than 100 nM; at PI3K β, less than 1000 nM; on PI3K δ, less than 1000 nM.

For the origin of these results see patent US9359352B2, “Substituted benzimidazoles as PI3 kinase inhibitors” (Intellikine LLC, priority 2010, dated 2016).
